Data as given in ChEMBL document CHEMBL1134424, “Synthesis and evaluation of caffeic acid amides as antioxidants” (Bioorg Med Chem Lett, 2001).
pIC50: −log10 of the molar value.

test: Evaluated for the antioxidant property by measuring the inhibition of microsomal lipid peroxidation; assay type: functional

| pIC50 | SMILES |
| --- | --- |
| 5.66 | NC(=O)/C=C/c1ccc(O)c(O)c1 |
| 6.42 | O=C(/C=C/c1ccc(O)c(O)c1)Nc1ccccc1 |
| 4.54 | CC(C)=CCNC(=O)/C=C/c1ccc(O)cc1 |
| 6.54 | O=C(/C=C/c1ccc(O)c(O)c1)Nc1ccccc1O |
| 5.49 | COC(=O)C(Cc1ccc(O)cc1)NC(=O)/C=C/c1ccc(O)c(O)c1 (stereo not given) |
| 5.41 | CC(C)NC(=O)/C=C/c1ccc(O)c(O)c1 |
| 5.44 | O=C(/C=C/c1ccc(O)c(O)c1)N1CCCCC1 |
| 5.85 | CC(C)CCNC(=O)/C=C/c1ccc(O)c(O)c1 |
| 5.47 | CC(C)=CCNC(=O)/C=C/c1ccc(O)c(O)c1 |
| 6.20 | O=C(/C=C/c1ccc(O)c(O)c1)Nc1ccc(O)cc1 |
| 5.66 | CC(C)CNC(=O)/C=C/c1ccc(O)c(O)c1 |
| 5.21 | O=C(/C=C/c1ccc(O)c(O)c1)N1CCOCC1 |
| 6.07 | O=C(/C=C/c1ccc(O)c(O)c1)NCCc1ccccc1 [CAFFEIC ACID PHENETHYL AMIDE] |
| 5.48 | O=C(O)/C=C/c1ccc(O)c(O)c1 [CAFFEIC ACID] |

Further lines, the molecule ahead of its results:

| SMILES | pIC50 |
| --- | --- |
| CCNC(=O)/C=C/c1ccc(O)c(O)c1 | 5.57 |
| O=C(/C=C/c1ccc(O)c(O)c1)NCc1ccccc1 | 5.99 |
| O=C(/C=C/c1ccc(O)c(O)c1)NCCc1ccc(O)c(O)c1 | 6.23 |
| O=C(/C=C/c1ccc(O)c(O)c1)Nc1cccc(O)c1 | 6.43 |
| O=C(/C=C/c1ccc(O)c(O)c1)N1CCCC1 | 5.62 |
| CCN(CC)C(=O)/C=C/c1ccc(O)c(O)c1 | 5.39 |
| C=CCNC(=O)/C=C/c1ccc(O)c(O)c1 | 5.66 |
| CNC(=O)/C=C/c1ccc(O)c(O)c1 | 5.22 |
| O=C(O)/C=C/c1ccc(O)cc1 [COUMARIC ACID] | 4.00 |
| O=c1c(O)c(-c2ccc(O)c(O)c2)oc2cc(O)cc(O)c12 [QUERCETIN] | 6.02 |
| Cc1c(C)c2c(c(C)c1O)CCC(C)(C(=O)O)O2 (stereo not given) [TROLOX] | 5.55 |
